# Experimental data from PMC7271024, “N1-Benzofused Modification of Fluoroquinolones Reduces Activity Against Gram-Negative Bacteria” (ACS Omega, 2020).
# What was measured:
# [1] = tested on: A. baumannii ATCC 17978; assay: MIC, microdilution broth method; format: cell-based, Acinetobacter baumannii; conditions: for MIC: Acinetobacter baumannii, ciprofloxacin-sensitive strain (S); for potentiation of MIC by PMBN: MIC –PMBN vs +PMBN
# [2] = tested on: P. aeruginosa PAO1; assay: MIC, microdilution broth method; format: cell-based, Pseudomonas aeruginosa; conditions: for potentiation of MIC by PMBN: MIC –PMBN vs +PMBN; for MIC: Pseudomonas aeruginosa, ciprofloxacin-sensitive strain (S)
# [3] = tested on: E. coli NCTC 12923; assay: MIC, microdilution broth method; format: cell-based, Escherichia coli; conditions: for MIC: Escherichia coli, ciprofloxacin-sensitive strain (S)
# [4] = tested on: P. aeruginosa NCTC 13437; assay: MIC, microdilution broth method; format: cell-based, Pseudomonas aeruginosa; conditions: for MIC: Pseudomonas aeruginosa; for potentiation of MIC by PMBN: MIC –PMBN vs +PMBN
# Protocol: (§1) The antibacterial activities of the synthesized fluoroquinolones were evaluated against a panel of Gram-negative pathogens including K. pneumoniae (NCTC 13368, M6), Acinetobacter baumannii (AYE, ATCC 17978), Pseudomonas aeruginosa (PAO1, NCTC 13437), and Escherichia coli (NCTC 12923, LEC001). The ability of molecules to permeate the Gram-negative outer membrane was investigated by adding membrane permeabilizer polymyxin B nonapeptide (PMBN) at sub-inhibitory concentrations (Table 2). Phenylalanine–arginine β-naphthylamide (PAβN) was used to investigate efflux of compounds by resistance–nodulation–division (RND)-family efflux pumps (Table 3).
# (§2) Minimal inhibitory concentrations (MICs) were determined using the microdilution broth method. Briefly, compounds were added to the first two columns of a 96-well plate and diluted two-fold down the plate in tryptic soy broth. Overnight cultures of bacteria were then adjusted to a concentration of 1 × 10^6 CFU/mL and added to each well for a final concentration of 5 × 10^5 CFU/mL.
# [5] = tested on: K. pneumoniae M6; assay: MIC, microdilution broth method; format: cell-based, Klebsiella pneumoniae; conditions: for potentiation of MIC by PMBN: MIC –PMBN vs +PMBN; for MIC: Klebsiella pneumoniae, ciprofloxacin-sensitive strain (S)
# [6] = tested on: E. coli LEC001; assay: MIC, microdilution broth method; format: cell-based, Escherichia coli; conditions: for MIC: Escherichia coli
# Protocol: as §1, §2
# [7] = tested on: A. baumannii AYE; assay: MIC, microdilution broth method; format: cell-based, Acinetobacter baumannii; conditions: for MIC: Acinetobacter baumannii
# Protocol: as §1, §2
# [8] = tested on: K. pneumoniae NCTC 13368; assay: MIC, microdilution broth method; format: cell-based, Klebsiella pneumoniae; conditions: for MIC: Klebsiella pneumoniae, ciprofloxacin-resistant strain (R); for potentiation of MIC by PMBN: MIC –PMBN vs +PMBN
# Protocol: as §1, §2
# [9] = tested on: panel of Gram-negative pathogens; assay: MIC panel, statements across strains; format: cell-based, K. pneumoniae, A. baumannii, P. aeruginosa, E. coli; conditions: versus ciprofloxacin
# Protocol: as §1, §2
# [10] = Solubility as observed in the MIC and enzyme experiments; format: physicochemical; conditions: evidenced when undertaking the MIC experiments
# Protocol: In vitro activity assays using purified S. aureus, E. coli and P. aeruginosa DNA gyrase, and S. aureus topoisomerase IV enzymes were performed in order to evaluate whether the gains in inhibitory activity predicted for the benzofused compounds were accurate. The benzothiophene-containing 6e was selected as a representative compound for the purposes of this experiment. […].
# A general correlation between N1 substituent hydrophobicity and activity is observed; […].
# [11] = PAβN, text names A. baumannii only
# [12] = NCTC13437, +PMBN (30 μg/mL), ciprofloxacin-resistant strain (R)
# [13] = NCTC13437, –PMBN, ciprofloxacin-resistant strain (R)
# [14] = LEC001, +PMBN (30 μg/mL), ciprofloxacin-resistant strain (R)
# [15] = LEC001, –PMBN, ciprofloxacin-resistant strain (R)
# [16] = +PMBN (30 μg/mL), ciprofloxacin-resistant strain (R)
# [17] = –PMBN, ciprofloxacin-resistant strain (R)
Compound,"MIC ([1]; ATCC17978, +PMBN (30 μg/mL)) [µg/mL]","MIC ([1]; ATCC17978, –PMBN) [µg/mL]",potentiation of MIC by PMBN [1],potentiation of MIC by PMBN [2],"MIC ([3]; NCTC12923, +PMBN (30 μg/mL)) [µg/mL]","MIC ([3]; NCTC12923, –PMBN) [µg/mL]","MIC [4, 12] [µg/mL]","MIC [4, 13] [µg/mL]",potentiation of MIC by PMBN [5],"MIC [6, 14] [µg/mL]","MIC [6, 15] [µg/mL]","MIC [7, 16] [µg/mL]","MIC [7, 17] [µg/mL]","MIC ([2]; PAO1, +PMBN (30 μg/mL)) [µg/mL]","MIC ([2]; PAO1, –PMBN) [µg/mL]","MIC ([8]; NCTC13368, +PMBN (30 μg/mL)) [µg/mL]","MIC ([8]; NCTC13368, –PMBN) [µg/mL]","MIC ([5]; M6, +PMBN (30 μg/mL)) [µg/mL]","MIC ([5]; M6, –PMBN) [µg/mL]",antibacterial activity [9],other results
"O=C(O)c1cn(C2CC2)c2cc(N3CCNCC3)c(F)cc2c1=O [Compound 6a, ciprofloxacin, reference compound]",0.5,0.5,1–2 fold,4–16 fold,0.03 to 0.06,≤ 0.03,16,> 32,1 fold,32,16,> 32,> 32,–,–,–,–,–,–,–,"effect of PAβN on MIC [1, 11]: Neither ciprofloxacin nor compound 6e showed any difference in MIC; effect of PAβN on MIC ([3]; PAβN, text names E. coli only): No effect; MIC ([4]; NCTC13437, +PAβN (25 μg/mL), Table 3, strain R): 16 µg/mL; MIC ([4]; NCTC13437, –PAβN, Table 3, strain R): 32 µg/mL; effect of PAβN on MIC ([5]; RND-family efflux inhibitor PAβN): not evident; MIC ([6]; LEC001, +PAβN (25 μg/mL), Table 3, strain R): 32 µg/mL; MIC ([6]; LEC001, –PAβN, Table 3, strain R): 16 µg/mL; effect of PAβN on MIC ([6]; PAβN, text names E. coli only): No effect; MIC ([7]; +PAβN (25 μg/mL), Table 3, strain R): > 32 µg/mL; MIC ([7]; –PAβN, Table 3, strain R): 32 µg/mL; effect of PAβN on MIC [7, 11]: Neither ciprofloxacin nor compound 6e showed any difference in MIC"
"CCn1cc(C(=O)O)c(=O)c2cc(F)c(N3CCNCC3)cc21 [Compound 6b, norfloxacin, reference compound]",4,8,1–2 fold,4–16 fold,0.125,0.125,32,> 32,1 fold,> 32,> 32,> 32,> 32,0.5,2 to 4,2,4,0.5,0.25 to 0.5,–,potentiation of MIC by PMBN [8]: 2 fold
O=C(O)c1cn(Cc2ccccc2)c2cc(N3CCNCC3)c(F)cc2c1=O [Compound 6c],4,4 to 8,–,–,0.5,1 to 2,32,> 32,–,> 32,> 32,> 32,> 32,0.5,8,4,16,1,1,limited activity,–
O=C(O)c1cn(-c2cccc3ccoc23)c2cc(N3CCNCC3)c(F)cc2c1=O [Compound 6d],1,2,2 fold,–,0.25,1,32,> 32,2–4 fold,> 32,> 32,> 32,> 32,0.5,8 to 16,2,16,0.5,1 to 2,limited activity,potentiation of MIC by PMBN [8]: 4–8 fold
O=C(O)c1cn(Cc2cccc3ccoc23)c2cc(N3CCNCC3)c(F)cc2c1=O [Compound 6f],> 128,> 128,–,over 8 fold,32,> 128,32,> 128,–,> 32,> 32,> 128,> 128,16,> 128,> 128,> 128,> 128,> 128,almost complete loss of activity,solubility profile [10]: poor solubility profiles; potentiation of MIC by PMBN [4]: over 8 fold
O=C(O)c1cn(Cc2cccc3ccsc23)c2cc(N3CCNCC3)c(F)cc2c1=O [Compound 6g],> 128,> 128,–,over 8 fold,128,> 128,16,> 128,–,> 32,> 32,> 128,> 128,32,> 128,> 128,> 128,> 128,> 128,almost complete loss of activity,solubility profile [10]: poor solubility profiles; potentiation of MIC by PMBN [4]: over 8 fold
